110 molecules from PubChem BioAssay AID1189 (EPA DSSTox, 2008) can be followed below.

SMILES strings stand for the structures. Activity calls are given as the source filed them.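 The calls were made as follows: active = a tumor-causing dose value with its tumor site reported for any sex and species group of a rodent or other animal cancer study; inconclusive = only studies judged inadequate by the national testing program; inactive = tested in at least one study, none positive.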

The nature of this series: DSSTox (CPDBAS) Carcinogenic Potency Database Summary SingleCellCall Results. The note with it: animal chronic carcinogenicity bioassays, CPDB summary call. A digest of the protocol:
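Literature-derived summary: each substance receives an overall carcinogenic/non-carcinogenic category drawn from long-term bioassays in rats, mice, hamsters, dogs or primates, using the most positive sex-species experiment and minimal evidence criteria.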
As for `O=S(=O)(Oc1ccc(Cl)cc1)c1ccc(Cl)cc1`, the result was inactive.
On to `CN(C)CNc1nnc(/C=C/c2ccc([N+](=O)[O-])o2)o1`, for which the result was active.
In the case of `C=CC(O)c1ccc2c(c1)OCO2` (stereo not given) it was “active”; in that of `C=CCN(N)CC=C`, “active”.
Consider `C=CCN(CC(C)O)N=O` (stereo not given), for which the result was active.
Under `CN(C)C(=S)S` stands “inactive”; under `Nc1c(Cl)cc([N+](=O)[O-])cc1Cl`, “inactive”.
For `FC(F)=C(F)F`, the outcome is “active; inactive”.
On to `CCCCOC(=O)COc1ccc(Cl)cc1Cl`, for which the result was inactive.
For the molecule `O=C(O)/C=C/c1ccc(O)c(O)c1`, the result was active.
Take `O=c1cc[nH]c(=O)[nH]1`: the outcome is “active; inactive”.
As to `C[C@]12CC[C@H](OS(=O)(=O)O)CC1=CC[C@@H]1[C@@H]2CC[C@]2(C)C(=O)CC[C@@H]12`, the outcome is “inactive; active”.
For the molecule `CN(C)N=Nc1ccccc1`, the result was active.
Under `CCCC[C@H](C)[C@@H](OC(=O)C[C@H](CC(=O)O)C(=O)O)[C@@H](C[C@H](C)C[C@@H](O)CCCC[C@@H](O)C[C@H](O)[C@H](C)N)OC(=O)C[C@H](CC(=O)O)C(=O)O` stands “active; inactive”.
Regarding `Cc1ccc2c(-c3cccc(O)c3)nc(=O)n(C(C)C)c2c1`, the result was inactive.
Consider `COC1=CC(=O)C[C@@H](C)[C@]12Oc1c(Cl)c(OC)cc(OC)c1C2=O`, for which the outcome was active.
Turning to `Cc1ccc(NC(N)=O)cc1`, the result was active.
`CC(Cl)CCl` (stereo not given): the outcome was “active; inactive”.
Under `CN(CCO)N=O` stands “active”.
In the case of `CC1=C(/C=C/C(C)=C/C=C/C(C)=C/C(=O)O)C(C)(C)CCC1` it was “inactive”; in that of `O=C1NC(c2ccc([N+](=O)[O-])s2)Nc2ccccc21` (stereo not given), “active”.
With `C/C=C1/C[C@@H](C)[C@@](C)(O)C(=O)OC/C2=C/CN(C)CC[C@@H](OC1=O)C2=O`, the outcome was active.
As to `Cc1cccc2ccccc12`, the outcome was “inactive; active”.
Consider `CC(O)CNC(=O)N(N=O)C(C)Cl` (stereo not given), for which the outcome was active.
Under `CCOc1ccc(NC(=O)CC(C)O)cc1` (stereo not given) stands “active”.
For the molecule `C=CCOc1ccccc1OCC(O)CNC(C)C` (stereo not given), the result was inactive.
`C[C@]12CC[C@@H]3c4ccc(O)cc4CC[C@H]3[C@@H]1CC[C@@H]2O`: the outcome was inactive.
Regarding `COc1cc2c(c3oc(=O)c4c(c13)CCOC4=O)C1C=COC1O2` (stereo not given), the outcome was active.
Under `c1ccc2c(c1)ccc1cc3c(ccc4ccccc43)cc12` stands “active”; under `O=C1CCCCCN1`, “inactive”.
Under `CC1CN(N=O)C(=O)O1` (stereo not given) stands “active”; under `CC(C)(C)c1cc(O)ccc1O`, “inactive”.
Consider `CCCCCCCCCCCC[N+](C)(C)[O-]`, for which the outcome was inactive.
For the molecule `Nc1ccc(-c2ccc(N)c(N)c2)cc1N`, the result was active.
Take `CC(Oc1cc(Cl)ccc1Cl)C(=O)O` (stereo not given): the result was inactive.
On to `C[C@]12C=CC(=O)C=C1CC[C@@H]1[C@@H]2[C@@H](O)C[C@@]2(C)[C@H]1CC[C@]2(O)C(=O)CO`, for which the outcome was active.
In the case of `CN[C@H]1CC[C@@H](c2ccc(Cl)c(Cl)c2)c2ccccc21` it was “inactive”.
Consider `C=Cc1ccccc1`, for which the result was active.
As for `CCCN(N)C=O`, the outcome was active.
For `COC(C)(C)C`, the result was active.
In the case of `CC1=C2C(=CO[C@@H](C)[C@@H]2C)C(=O)C(C(=O)O)=C1O` it was “active”.
In the case of `[N-]=[N+]=[N-]`, the outcome is “inactive; active”.
For `O=NN1CCCN(N=O)C1`, the outcome was active.
Turning to `C=C/C=N/O`, the result was inactive.
Consider `CC(=O)Nc1ccc2c(c1)C(=O)c1ccccc1-2`, for which the outcome was active.
Under `O=c1oc2c(O)c(O)cc3c(=O)oc4c(O)c(O)cc1c4c23` stands “inactive”; under `O=NN(c1ccccc1)c1ccccc1`, “active; inactive”; under `CC(=O)Nc1ccc(-c2ccccc2)cc1`, “active”.
With `CCCCN(N=O)C(=N)N[N+](=O)[O-]`, the outcome was inactive.
For `ClC1=C(Cl)[C@]2(Cl)[C@@H]3[C@H]4C=CC(C4)[C@@H]3C1(Cl)C2(Cl)Cl`, the outcome was active.
Consider `Nc1ccc(Oc2ccc(N)c(N)c2)cc1`, for which the result was active.
`O=NN1CCOC(O)C1` (stereo not given): the outcome was “inactive; active”.
In the case of `CCOP(=S)(OCC)Oc1ccc2c(C)c(Cl)c(=O)oc2c1`, the outcome was inactive.
In the case of `NC(=S)NNC=O`, the outcome was inactive.
In the case of `CC(=O)N[C@@H](CS)C(=O)O`, the outcome was inactive.
`O=C(O)c1ccncc1`: the result was inactive.
With `CC(C(=O)O)c1cccc(C(=O)c2ccccc2)c1` (stereo not given), the result was inactive.
In the case of `[K+]`, the outcome was “active; inactive”.
For the molecule `CN(C)Nc1nc(-c2ccc([N+](=O)[O-])o2)cs1`, the outcome is “active; inactive”.
Turning to `Cc1cccn2c1nc1ccc(N)nc12`, the result was active.
For the molecule `Cc1cc(C(C)(C)C)c(O)c(C(C)(C)C)c1`, the result was active.
With `CCCCCCC(=O)/C=C/CCCCCCCCC(=O)OC`, the outcome is “inactive; active”.
Turning to `CC(C)O`, the result was inactive.
Under `COc1ccc2c3c1O[C@H]1[C@@H](O)C=C[C@H]4[C@@H](C2)N(C)CC[C@@]341` stands “inactive”.
Take `NNC(=O)c1cccnc1`: the outcome was active.
For `O=C(N[C@H](CO)[C@H](O)c1ccc([N+](=O)[O-])cc1)C(Cl)Cl`, the result was inactive.
As for `CCN(CC)CC#CC(C)(C)OC(=O)C(O)(c1ccccc1)C1CCCCC1` (stereo not given), the outcome is “inactive; active”.
Take `NC(=O)NNc1ccccc1`: the outcome was “active; inactive”.
As for `Cn1cnc([N+](=O)[O-])c1Sc1ncnc2nc[nH]c12`, the result was active.
As to `OCCOCCO`, the result was active.
In the case of `ClCCOCCCl` it was “active”; in that of `CNc1ncnc2nc[nH]c12`, “inactive”.
As to `O=S(=O)([O-])[O-].O=S(=O)([O-])[O-].[Zr+4]`, the result was inactive.
As to `O=C1O[C@@H](CN2CCOCC2)CN1/N=C/c1ccc([N+](=O)[O-])o1`, the result was active.
Under `C[C@]12CC[C@H](O)CC1=CC[C@@H]1[C@@H]2CC[C@]2(C)C(=O)CC[C@@H]12` stands “active”; under `O=C1CN(/N=C/c2ccc([N+](=O)[O-])o2)C(=O)N1`, “active”.
Regarding `O=C(O)CC(O)(CC(=O)O)C(=O)O`, the outcome was inactive.
For `C1CCOC1`, the outcome is “active; inactive”.
Turning to `O=C(O)[C@@H]1[C@H](C(=O)O)[C@@]2(Cl)C(Cl)=C(Cl)[C@]1(Cl)C2(Cl)Cl`, the result was active.
In the case of `COc1ccccc1[N+](=O)[O-]`, the outcome was active.
As for `O=NN1CCCC1`, the outcome was “active; inactive”.
As to `CNC(=O)O/N=C/C(C)(C)SC`, the outcome was inactive.
Turning to `C=CC(OC(C)=O)c1ccc2c(c1)OCO2` (stereo not given), the result was active.
Under `ClC(Cl)(Cl)c1ccccc1` stands “active; inactive”; under `Clc1cccc(-c2cccc(Cl)c2)c1`, “active”; under `CCCc1ccc2c(c1)OCO2`, “active; inactive”.
With `C1COCCO1`, the outcome is “active; inactive”.
With `c1ccc(N=Nc2ccccc2)cc1`, the result was active.
Consider `NNC(N)=O`, for which the outcome was “active; inactive”.
As to `CC(=O)OCC(=O)[C@@]12N=C(C)O[C@@H]1C[C@H]1[C@@H]3CCC4=CC(=O)C=C[C@]4(C)[C@H]3[C@@H](O)C[C@@]12C`, the outcome was active.
Regarding `CCN(CC)C(=S)S[Se](SC(=S)N(CC)CC)(SC(=S)N(CC)CC)SC(=S)N(CC)CC`, the outcome was “active; inactive”.
Turning to `CN(C)C(=O)COC(=O)Cc1ccc(OC(=O)c2ccc(N=C(N)N)cc2)cc1`, the outcome was inactive.
As for `N[C@@H](CC(=O)O)C(=O)O`, the outcome is “inactive; active”.
In the case of `C#C[C@]1(O)CC[C@H]2[C@@H]3CCc4cc(O)ccc4[C@H]3CC[C@@]21C`, the outcome was “active; inactive”.
On to `COc1ccc(N)c(C)c1`, for which the outcome was active.
In the case of `CC(=O)Nc1ccc(-c2ccc(F)cc2)cc1`, the result was active.
Under `COc1cc2c(cc1N)oc1ccccc12` stands “active”; under `c1ccc2c(c1)cc1ccc3cccc4ccc2c1c34`, “active; inactive”.
In the case of `CCC[CH2][Sn]([CH2]CCC)([CH2]CCC)[O][Sn]([CH2]CCC)([CH2]CCC)[CH2]CCC` it was “inactive”.
Regarding `O=NN1CCCCCCCCCCCC1`, the result was active.
For the molecule `O=C(O)c1cc(O)c(O)c(O)c1`, the result was inactive.
As for `FC(F)(F)CCl`, the outcome is “active; inactive”.
Turning to `CC1=C[C@H]2O[C@@H]3[C@H](O)C[C@@](C)(C34CO4)[C@@]2(CO)[C@H](O)C1=O` (stereo not given in full), the outcome is “inactive; active”.
On to `CCN=c1cc2oc3cc(NCC)c(C)cc3c(-c3ccccc3C(=O)OCC)c-2cc1C`, for which the outcome was “inactive; active”.
Under `CC/C(=C(\c1ccccc1)c1ccc(OCCN(C)C)cc1)c1ccccc1` stands “active”; under `Nc1nnc(-c2ccc([N+](=O)[O-])o2)o1`, “active”; under `C=CC(=C)C`, “active”.
Take `ClC1=C(Cl)C2(Cl)C3C(Cl)OC(Cl)C3C1(Cl)C2(Cl)Cl` (stereo not given): the result was inactive.
For the molecule `O=C1c2ccccc2C(=O)c2c(O)cccc21`, the result was active.
Turning to `Nc1ccc(N(CCO)CCO)cc1`, the result was inactive.
